The text below walks through data of US8513270B2, “Substituted heterocycles as Janus kinase inhibitors” (Incyte Corporation, priority 2006, dated 2013).

Assay [1] addresses T1, human JAK2 (a.a. 828-1132) (Homo sapiens, UniProt O60674).
T1 construct: JAK2 (a.a. 828-1132); His tag (N); made in house; host or cells: insect cells (baculovirus)
Briefly: In vitro JAK kinase assay (HTRF), JAK2. Type of assay: biochemical. As to conditions: JAK2, 30 μM ATP; read-out: EXAMPLE A HTS-JAK2 HTRF-2 IC50. The procedure: (§1) Compounds herein were tested for inhibitory activity of JAK targets according to the following in vitro assay described in Park et al., Analytical Biochemistry 1999, 269, 94-104. The catalytic domains of human JAK1 (a.a. 837-1142), JAK2 (a.a. 828-1132) and JAK3 (a.a. 781-1124) with an N-terminal His tag were expressed using baculovirus in insect cells and purified. The catalytic activity of JAK1, JAK2 or JAK3 was assayed by measuring the phosphorylation of a biotinylated peptide. The phosphorylated peptide was detected by homogenous time resolved fluorescence (HTRF). IC50s of compounds were measured for each kinase in the reactions that contain the enzyme, ATP and 500 nM peptide in 50 mM Tris (pH 7.8) buffer with 100 mM NaCl, 5 mM DTT, and 0.1 mg/mL (0.01%) BSA. The ATP concentration in the reactions was 90 μM for JAK1, 30 μM for JAK2 and 3 μM for JAK3. Reactions were carried out at room temperature for 1 hr and then stopped with 20 μL 45 mM EDTA, 300 nM SA-APC, 6 nM Eu—Py20 in assay buffer (Perkin Elmer, Boston, Mass.). Binding to the Europium labeled antibody took place for 40 minutes and HTRF signal was measured on a Fusion plate reader (Perkin Elmer, Boston, Mass.).

In assay [2] the test system is JAK2_INA61 (cancer cell line dependent on cytokines and JAK/STAT signal transduction). Briefly: Cellular assay: viability of cytokine-dependent cancer cell line (CellTiter-Glo). Type of assay: cell-based. The settings on record: 72 hours, read-out: EXAMPLE B JAK2_INA61 IC50. The procedure: One or more compounds herein were tested for inhibitory activity of JAK targets according to at least one of the following cellular assays.
Compounds were added to the cells in DMSO/media (final concentration 0.2% DMSO) and incubated for 72 hours at 37° C., 5% CO2. The effect of compound on cell viability was assessed using the CellTiter-Glo Luminescent Cell Viability Assay (Promega) followed by TopCount (Perkin Elmer, Boston, Mass.) quantitation. Potential off-target effects of compounds were measured in parallel using a non-JAK driven cell line with the same assay readout. […] All experiments were performed in duplicate.
In general terms: In ATP-based viability assays light output follows the ATP content of the culture.

Assay [3] addresses T2, human JAK1 (a.a. 837-1142) (Homo sapiens, UniProt P23458).
T2 construct: human JAK1 (a.a. 837-1142); His tag (N); made in house; host or cells: insect cells (baculovirus)
Briefly: In vitro JAK kinase assay (HTRF), JAK1. Type of assay: biochemical. The settings on record: JAK1, 90 μM ATP; read-out: EXAMPLE A JAK2-JAK1 HTRF-2 IC50. The procedure:
as §1

Assay [4] has as its target T3, human JAK3 (a.a. 781-1124) (Homo sapiens, UniProt P52333).
T3 construct: JAK3 (a.a. 781-1124); His tag (N); made in house; host or cells: insect cells (baculovirus)
Put plainly: In vitro JAK kinase assay (HTRF), JAK3. Type of assay: biochemical. As to conditions: JAK3, 3 μM ATP; read-out: EXAMPLE A JAK2-JAK3 HTRF-2 IC50. The procedure: as §1

Assay [5] concerns the target TF1-BCRABL1 cells (Homo sapiens, UniProt P00519). Briefly: ABL1 cell based assay: viability of ABL1-dependent cell line (CellTiter-Glo). The settings on record: 72 hours, cell viability; read-out: EXAMPLE F JAK2-TF1-BCRABL1 IC50. The method, then:
One or more compounds herein were tested for inhibitory activity of ABL1 targets according to at least one of the following cellular assays.
Cancer cell lines dependent on ABL1 kinase activity for proliferation and/or survival were plated at 3000 cells per well (96 well plate format) in RPMI 1640, and 10% FBS. Compounds were added to the cells in DMSO/media (final concentration 0.2% DMSO) and incubated for 72 hours at 37° C., 5% CO2. The effect of compound on cell viability was assessed using the CellTiter-Glo Luminescent Cell Viability Assay (Promega) followed by TopCount (Perkin Elmer, Boston, Mass.) quantitation. ABL1-dependent cell lines can include those naturally dependent on ABL1 activity or those engineered to be dependent on ABL1 activity (e.g. BaF/3 cells). The latter can be generated using wild-type ABL1 or mutant ABL1 (such as T315I ABL1) so that the activity of compounds can be assessed against different variants of the ABL1 kinase. Potential off-target effects of compounds were measured in parallel using a non-ABL1 driven cell line with the same assay readout. […] All experiments were performed in duplicate or greater.

Where a name gives a salt, the structure may show the parent alone.

T3 sequence (P52333 781-1124): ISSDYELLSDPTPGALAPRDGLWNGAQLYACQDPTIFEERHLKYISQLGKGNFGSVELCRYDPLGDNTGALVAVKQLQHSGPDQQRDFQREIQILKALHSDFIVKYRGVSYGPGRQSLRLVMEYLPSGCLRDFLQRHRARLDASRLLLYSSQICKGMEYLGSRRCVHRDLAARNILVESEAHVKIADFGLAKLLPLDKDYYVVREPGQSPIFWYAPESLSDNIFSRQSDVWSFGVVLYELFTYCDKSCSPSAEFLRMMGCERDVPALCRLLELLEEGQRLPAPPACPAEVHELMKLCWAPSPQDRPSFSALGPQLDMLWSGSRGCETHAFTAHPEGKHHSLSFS
T1 sequence (O60674 828-1132): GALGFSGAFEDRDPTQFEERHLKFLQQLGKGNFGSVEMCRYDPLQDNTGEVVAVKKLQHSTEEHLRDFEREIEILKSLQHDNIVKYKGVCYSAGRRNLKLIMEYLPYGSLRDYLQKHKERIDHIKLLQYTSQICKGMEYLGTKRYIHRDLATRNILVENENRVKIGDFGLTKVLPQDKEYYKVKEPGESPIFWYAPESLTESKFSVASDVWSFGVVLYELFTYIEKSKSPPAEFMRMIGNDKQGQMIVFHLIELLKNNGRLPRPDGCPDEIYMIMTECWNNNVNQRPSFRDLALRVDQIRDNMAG
T2 sequence (P23458 849-1154): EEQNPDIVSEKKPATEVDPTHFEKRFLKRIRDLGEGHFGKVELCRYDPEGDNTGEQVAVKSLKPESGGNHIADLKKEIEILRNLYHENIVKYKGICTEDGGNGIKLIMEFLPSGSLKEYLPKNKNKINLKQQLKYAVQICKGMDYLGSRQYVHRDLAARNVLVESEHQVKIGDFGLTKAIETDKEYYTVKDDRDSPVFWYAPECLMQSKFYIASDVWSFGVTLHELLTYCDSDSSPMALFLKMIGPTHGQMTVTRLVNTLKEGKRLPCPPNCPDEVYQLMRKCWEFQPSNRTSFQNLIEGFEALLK
TF1-BCRABL1 cells, sequence (P00519 whole entry, change not shown): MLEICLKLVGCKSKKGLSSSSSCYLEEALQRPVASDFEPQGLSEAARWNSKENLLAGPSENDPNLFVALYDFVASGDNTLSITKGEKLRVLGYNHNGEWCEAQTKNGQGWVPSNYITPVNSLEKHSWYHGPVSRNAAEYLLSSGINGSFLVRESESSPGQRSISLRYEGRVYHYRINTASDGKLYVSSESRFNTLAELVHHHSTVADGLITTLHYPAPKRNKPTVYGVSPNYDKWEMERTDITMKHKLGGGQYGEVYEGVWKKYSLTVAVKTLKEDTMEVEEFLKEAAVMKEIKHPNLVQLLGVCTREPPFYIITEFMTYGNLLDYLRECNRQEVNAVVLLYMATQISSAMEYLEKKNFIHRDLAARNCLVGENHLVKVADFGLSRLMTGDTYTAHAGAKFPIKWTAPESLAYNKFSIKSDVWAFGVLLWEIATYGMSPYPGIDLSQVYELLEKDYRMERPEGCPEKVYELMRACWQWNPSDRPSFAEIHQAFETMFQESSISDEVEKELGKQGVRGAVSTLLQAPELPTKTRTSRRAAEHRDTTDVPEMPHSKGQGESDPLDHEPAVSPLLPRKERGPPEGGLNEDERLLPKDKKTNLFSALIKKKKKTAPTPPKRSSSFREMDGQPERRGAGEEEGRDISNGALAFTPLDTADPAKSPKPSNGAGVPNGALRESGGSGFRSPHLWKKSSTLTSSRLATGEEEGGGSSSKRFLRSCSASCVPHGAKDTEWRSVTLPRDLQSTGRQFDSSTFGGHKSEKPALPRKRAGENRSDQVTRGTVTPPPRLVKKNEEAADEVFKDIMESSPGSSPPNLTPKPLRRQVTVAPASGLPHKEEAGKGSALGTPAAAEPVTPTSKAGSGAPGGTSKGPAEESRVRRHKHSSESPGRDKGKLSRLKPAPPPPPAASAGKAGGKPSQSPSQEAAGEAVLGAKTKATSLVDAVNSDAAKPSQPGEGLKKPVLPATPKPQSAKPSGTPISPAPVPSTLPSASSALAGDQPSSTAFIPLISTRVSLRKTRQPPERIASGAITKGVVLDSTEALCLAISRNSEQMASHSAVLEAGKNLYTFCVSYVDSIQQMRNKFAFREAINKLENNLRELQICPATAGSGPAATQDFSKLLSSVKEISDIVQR

For orientation: IC50 means the concentration that inhibits the measured activity by half. Consider `Cc1ccc(NC(=O)c2cc(C(F)(F)F)cc(Cl)c2F)cc1-c1ccc2[nH]c3ncncc3c2c1` [Example 46, 3-chloro-2-fluoro-N-[4-methyl-3-(9H-pyrimido[4,5-b]indol-6-yl)phenyl]-5-(trifluoromethyl)-benzamide], for which the IC50 was at most 500 nM in assay [1], above 1000 nM in assay [2], at most 500 nM in assay [3] and above 1000 nM in assay [4]. In assay [5], the GI50 is at most 500 nM.

In the case of `Cc1ccc(C(=O)NCc2cc(F)ccc2F)cc1-c1ccc2c(c1)[nH]c1ncncc12` [Example 55, N-(2,5-difluorobenzyl)-4-methyl-3-(9H-pyrimido-[4,5-b]indol-7-yl)benzamide], the IC50 is above 1000 nM in assay [1], 500 to 1000 nM in assay [2], above 1000 nM in assay [3] and at most 500 nM in assay [4]. Further, in assay [5], the GI50 lay within 500 to 1000 nM.

Turning to `Cc1ccc(NC(=O)c2cc(NCCCn3ccnc3)cc(C(F)(F)F)c2)cc1-c1ccc2c(c1)[nH]c1ncncc12` [Example 35, 3-{[3-(1H-imidazol-1-yl)-propyl]amino}-N-[4-methyl-3-(9H-pyrimido[4,5-b]indol-7-yl)phenyl]-5-(trifluoromethyl)-benzamide], the IC50 in assay [1], in assay [3] and in assay [4] was at most 500 nM each time. In assay [5], the GI50 was at most 500 nM.

With `Cc1ncc(NC(=O)c2cc(-n3cnc(CO)c3)cc(C(F)(F)F)c2)cc1-c1ccc2c(c1)[nH]c1ncncc12` [Example 75, 3-[4-(hydroxymethyl)-1H-imidazol-1-yl]-N-[6-methyl-5-(9H-pyrimido[4,5-b]indol-7-yl)pyridin-3-yl]-5-(trifluoromethyl)benzamide tris(trifluoroacetate) (salt)], the concentration for half-maximal inhibition (IC50) in assay [1], in assay [3] and in assay [4] was at most 500 nM throughout. The GI50 in assay [5] is at most 500 nM.

For the compound `Cc1ncc(NC(=O)c2cc(-n3cnc(C=O)c3)cc(C(F)(F)F)c2)cc1-c1ccc2c(c1)[nH]c1ncncc12` [Example 74, 3-(4-formyl-1H-imidazol-1-yl)-N-[6-methyl-5-(9H-pyrimido[4,5-b]indol-7-yl)pyridin-3-yl]-5-(trifluoromethyl)benzamide bis(trifluoroacetate)], the concentration for half-maximal inhibition (IC50) in assay [1], in assay [3] and in assay [4] was at most 500 nM in each case. Besides, the GI50 in assay [5] was at most 500 nM.

For the compound `Cc1ccc(NC(=O)c2cc(-n3cnc(CN(C)C)c3)cc(C(F)(F)F)c2)cc1-c1ccc2c(c1)[nH]c1ncncc12` [Example 25, 3-{4-[(dimethylamino)methyl]-1H-imidazol-1-yl}-N-[4-methyl-3-(9H-pyrimido[4,5-b]-indol-7-yl)phenyl]-5-(trifluoro-methyl)benzamide], the concentration for half-maximal inhibition (IC50) in assay [1], in assay [3] and in assay [4] was at most 500 nM each time. For the same compound, the GI50 in assay [5] is at most 500 nM.

Take `Cc1ccc(NC(=O)c2cc(N3CCC(N(C)C)C3)cc(C(F)(F)F)c2)cc1-c1ccc2c(c1)[nH]c1ncncc12` (stereo not drawn) [Example 37, 3-[3-(dimethylamino)-pyrrolidin-1-yl]-N-[4-methyl-3-(9H-pyrimido[4,5-b]indol-7-yl)phenyl]-5-(trifluoromethyl)-benzamide]: the IC50 in assay [1], in assay [3] and in assay [4] was at most 500 nM in each case. In addition, in assay [5], the GI50 was at most 500 nM.

Turning to `Cc1ccc(NC(=O)c2cc(C(F)(F)F)cc(C(F)(F)F)c2)cc1-c1ccc2c(c1)[nH]c1ncncc12` [Example 9, N-[4-methyl-3-(9H-pyrimido-[4,5-b]indol-7-yl)phenyl]-3,5-bis(trifluoromethyl)benzamide], the IC50 in assay [1], in assay [3] and in assay [4] was at most 500 nM throughout. Further, the GI50 in assay [5] was at most 500 nM.

Regarding `Cc1ncc(NC(=O)c2cc(F)cc(C(F)(F)F)c2)cc1-c1ccc2c(c1)[nH]c1ncncc12` [Example 71, 3-Fluoro-N-[6-methyl-5-(9H-pyrimido[4,5-b]indol-7-yl)pyridin-3-yl]-5-(trifluoromethyl)benzamide], the IC50 in assay [1], in assay [3] and in assay [4] was at most 500 nM in each case. Moreover, in assay [5], the GI50 was at most 500 nM.

Turning to `Cc1ccc(NC(=O)c2cc(C(F)(F)F)cc(Cl)c2F)cc1-c1ccc2c(c1)[nH]c1ncncc12` [Example 8, 3-chloro-2-fluoro-N-[4-methyl-3-(9H-pyrimido[4,5-b]-indol-7-yl)phenyl]-5-(trifluoro-methyl)benzamide], the IC50 in assay [1], in assay [3] and in assay [4] was at most 500 nM throughout. The GI50 in assay [5] was at most 500 nM.

`Cc1ccc(NC(=O)c2cccc(C(F)(F)F)c2)cc1-c1ccc2c(c1)[nH]c1nc(N)ncc12` [Example 67, N-[3-(2-Amino-9H-pyrimido[4,5-b]indol-7-yl)-4-methylphenyl]-3-(trifluoro-methyl)benzamide trifluoroacetate]: the 50% inhibitory concentration (IC50) in assay [1], in assay [3] and in assay [4] was at most 500 nM each time. Also, the GI50 in assay [5] is at most 500 nM.

Turning to `Cc1ncc(NC(=O)c2cc(NCCCN(C)C)cc(C(F)(F)F)c2)cc1-c1ccc2c(c1)[nH]c1ncncc12` [Example 77, 3-[3-(dimethylamino)propyl]amino-N-[6-methyl-5-(9H-pyrimido[4,5-b]indol-7-yl)pyridin-3-yl]-5-(trifluoromethyl)benzamide tris(trifluoroacetate)], the IC50 in assay [1], in assay [3] and in assay [4] was at most 500 nM in each case. The GI50 in assay [5] was at most 500 nM.

As to `Cc1ccc(NC(=O)c2cc(N3CCN(CCO)CC3)cc(C(F)(F)F)c2)cc1-c1ccc2c(c1)[nH]c1ncncc12` [Example 32, 3-[4-(2-hydroxyethyl)piperazin-1-yl]-N-[4-methyl-3-(9H-pyrimido[4,5-b]indol-7-yl)-phenyl]-5-(trifluoromethyl)-benzamide], the IC50 in assay [1], in assay [3] and in assay [4] was at most 500 nM each time. In addition, the GI50 in assay [5] is at most 500 nM.

For the compound `Cc1ccc(NC(=O)c2ccc(F)c(C(F)(F)F)c2)cc1-c1ccc2c(c1)[nH]c1ncncc12` [Example 4, 4-fluoro-N-[4-methyl-3-(9H-pyrimido[4,5-b]indol-7-yl)-phenyl]-3-(trifluoromethyl)benzamide], the IC50 in assay [1], in assay [3] and in assay [4] was at most 500 nM in each case. Moreover, the GI50 in assay [5] is at most 500 nM.

Turning to `O=C(Nc1ccc(Cl)c(-c2ccc3c(c2)[nH]c2ncncc23)c1)c1cccc(C(F)(F)F)c1` [Example 17, N-[4-chloro-3-(9H-pyrimido-[4,5-b]indol-7-yl)phenyl]-3-(trifluoromethyl)benzamide], the IC50 in assay [1], in assay [3] and in assay [4] was at most 500 nM each time. For the same compound, the GI50 in assay [5] is at most 500 nM.

Consider `Cc1ccc(NC(=O)c2cc(N3CCC(O)C3)cc(C(F)(F)F)c2)cc1-c1ccc2c(c1)[nH]c1ncncc12` (stereo not drawn) [Example 34, 3-(3-hydroxypyrrolidin-1-yl)-N-[4-methyl-3-(9H-pyrimido-[4,5-b]indol-7-yl)phenyl]-5-(trifluoromethyl)benzamide], for which the IC50 in assay [1], in assay [3] and in assay [4] was at most 500 nM throughout. Moreover, the GI50 in assay [5] is at most 500 nM.
